Values after ≈ are worked out from the molar mass of the structure shown.

The experiment deals with Tacaribe virus. The experiment can be described thus: Antiviral activity against Tacaribe virus TRVL11573. The format is functional, organism-based. The following applies: Mammarenavirus tacaribeense.

In the case of `COc1ccc(NC(=O)CC2SC(N3N=C(c4ccccc4)CC3c3ccc(OC)cc3)=NC2=O)cc1` (stereo unspecified), the 50% effective concentration (EC50) turned out to be 0.71 µg/mL (≈ 1.38 µM).

One may read the EC50 as the concentration giving half of the maximal effect. Higher therefore signals lower potency in that assay.

The record behind these values is ChEMBL document CHEMBL3108688, “4-Thiazolidinones: the advances continue…” (Eur J Med Chem, 2014).
